# In ChEMBL document CHEMBL1143479, “Carbonic anhydrase inhibitors: inhibition of the tumor-associated isozymes IX and XII with a library of aromatic and heteroaromatic sulfonamides” (Bioorg Med Chem Lett, 2005):
# Experiments:
# Carbonic anhydrase 9 = Carbonic anhydrase 9 (Homo sapiens, UniProt Q16790)
# Carbonic anhydrase 1 = Carbonic anhydrase 1 (Homo sapiens, UniProt P00915)
# Carbonic anhydrase 2 = Carbonic anhydrase 2 (Homo sapiens, UniProt P00918)
# Carbonic anhydrase 12 = Carbonic anhydrase 12 (Homo sapiens, UniProt O43570)
# Chain of Carbonic anhydrase 12 (O43570 whole entry): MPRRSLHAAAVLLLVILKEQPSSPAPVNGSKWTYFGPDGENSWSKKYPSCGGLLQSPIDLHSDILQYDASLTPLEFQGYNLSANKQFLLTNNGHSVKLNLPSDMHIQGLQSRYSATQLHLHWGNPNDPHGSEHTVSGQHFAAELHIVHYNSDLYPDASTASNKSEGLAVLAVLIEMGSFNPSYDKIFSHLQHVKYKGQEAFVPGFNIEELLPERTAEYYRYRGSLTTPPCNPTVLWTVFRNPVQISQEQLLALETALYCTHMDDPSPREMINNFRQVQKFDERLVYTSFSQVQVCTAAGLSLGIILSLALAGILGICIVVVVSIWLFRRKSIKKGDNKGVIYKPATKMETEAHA
# Chain of Carbonic anhydrase 1 (P00915 whole entry): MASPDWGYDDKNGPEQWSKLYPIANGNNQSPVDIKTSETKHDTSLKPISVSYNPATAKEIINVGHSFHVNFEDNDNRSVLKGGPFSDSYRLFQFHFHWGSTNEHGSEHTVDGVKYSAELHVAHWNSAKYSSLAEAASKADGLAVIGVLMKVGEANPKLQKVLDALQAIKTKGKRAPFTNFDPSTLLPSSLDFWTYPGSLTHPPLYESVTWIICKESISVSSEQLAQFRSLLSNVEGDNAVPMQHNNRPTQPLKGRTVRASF
SMILES,Ki (Carbonic anhydrase 9) [nM],Ki (Carbonic anhydrase 1) [nM],Ki (Carbonic anhydrase 12) [nM],Ki (Carbonic anhydrase 2) [nM]
CC(C)(C)C(=O)Nc1ccc(S(N)(=O)=O)cc1,136,,,
CCCC(=O)Nc1ccc(S(N)(=O)=O)cc1,83,,,
NS(=O)(=O)c1ccc(CCNC(=S)Nc2ccccc2)cc1,21,50,24,53
CCCCC(=O)Nc1ccc(S(N)(=O)=O)cc1,79,,,
NS(=O)(=O)c1ccc(CCNC(=S)Nc2ccc(S(N)(=O)=O)cc2)cc1,,37,79,4
NS(=O)(=O)c1cccc(NC(=O)Nc2ccccc2)c1,14,1500,10,

# More lines, main results first:
Ki (Carbonic anhydrase 9) [nM],Ki (Carbonic anhydrase 1) [nM],Ki (Carbonic anhydrase 12) [nM],SMILES,Ki (Carbonic anhydrase 2) [nM]
37,,,CC(=O)Nc1ccc(Nc2ccc(S(N)(=O)=O)cc2)cc1,
139,,,CC(C)C(=O)Nc1ccc(S(N)(=O)=O)cc1,
,,49,CC(=O)Nc1ccc(S(N)(=O)=O)cc1,
